Experimental data published in patent US9914735B2, “Heteroaryl Syk inhibitors” (Boehringer Ingelheim International GmbH, priority 2014, dated 2018).
Read-outs that look alike come from different tables or passages of the source.

Tests used:
[1] = target: Recombinant human Aurora B (amino acids 1-344) (Homo sapiens (Human), UniProt Q96GD4); test: Aurora B kinase test (ADP Glo luminescence); format: biochemical
Procedure: The activity of the Aurora B kinase protein was determined using the ADP Glo® Luminescence Kinase test (Promega; V9103X).
Serial Dilution is done in 1:10 steps in 100% DMSO.
Then 20 μl Kinase detection mix (Detection Buffer #V913B Promega; Kinase Detection Substrate #V914B Promega) were added and incubated for 40 minutes at room temperature.
(§1) The output file of the reader is a csv file that contains the well number and measured RLU. For data evaluation and calculation, the measurement of the negative control was set as 0% ctrl and the measurement of the positive control was set as 100% ctrl. Based on this values the % value for the measurement of each substance concentration was calculated using an Assay Explorer software (Accelrys). Normally, the % ctrl values calculated are between 0% and 100% values but may also occur outside these limits in individual cases based on variability or compound characteristics. The IC50 values were calculated from the % ctrl values using Assay Explorer software. Calculation: [y=(a−d)/(1+(x/c)^b)+d], a=low value, d=high value; x=conc M; c=IC50 M; b=hill; y=% ctrl.

FLT3 = FLT3 (Homo sapiens (Human), UniProt P36888); test: FLT3 kinase test (Z'-LYTE); format: biochemical
FLT3, sequence (P36888 27-993): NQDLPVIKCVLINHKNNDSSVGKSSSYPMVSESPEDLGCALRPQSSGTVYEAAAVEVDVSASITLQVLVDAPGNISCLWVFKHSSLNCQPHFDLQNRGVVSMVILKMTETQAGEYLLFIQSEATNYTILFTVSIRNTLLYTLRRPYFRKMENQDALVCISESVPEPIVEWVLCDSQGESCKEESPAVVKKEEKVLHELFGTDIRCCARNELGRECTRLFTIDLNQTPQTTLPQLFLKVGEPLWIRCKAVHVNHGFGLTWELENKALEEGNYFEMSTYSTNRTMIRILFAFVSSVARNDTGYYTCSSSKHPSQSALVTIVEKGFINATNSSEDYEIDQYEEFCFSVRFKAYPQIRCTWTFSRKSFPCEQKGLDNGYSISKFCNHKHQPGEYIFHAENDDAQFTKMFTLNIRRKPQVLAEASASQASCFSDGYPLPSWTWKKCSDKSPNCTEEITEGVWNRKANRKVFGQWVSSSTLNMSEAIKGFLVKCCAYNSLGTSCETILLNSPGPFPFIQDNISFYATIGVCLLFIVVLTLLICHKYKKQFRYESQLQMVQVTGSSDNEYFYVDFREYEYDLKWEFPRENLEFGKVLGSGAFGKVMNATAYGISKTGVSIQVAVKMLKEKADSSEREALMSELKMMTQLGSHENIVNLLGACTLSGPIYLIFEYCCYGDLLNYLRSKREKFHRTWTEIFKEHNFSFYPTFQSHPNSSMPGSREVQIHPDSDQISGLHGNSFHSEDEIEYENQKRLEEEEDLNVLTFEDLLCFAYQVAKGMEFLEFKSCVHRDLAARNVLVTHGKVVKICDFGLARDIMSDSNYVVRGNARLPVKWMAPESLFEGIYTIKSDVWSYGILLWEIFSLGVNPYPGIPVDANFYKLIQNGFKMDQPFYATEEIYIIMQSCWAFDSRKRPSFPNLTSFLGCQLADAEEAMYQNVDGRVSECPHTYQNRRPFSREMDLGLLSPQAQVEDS
Procedure: The activity of FLT3 is measured using the Z′-LYTETM assay technology from Invitrogen (#PV3191)
The reaction is started by addition of 2.5 μl of the 4×ATP solution.
Positive controls are reaction mixtures containing no test compound; negative controls (blanks) are reaction mixtures containing no kinase. As a further control, the phosphopeptide solution is added to wells without kinase (=100% phosphorylation control).
The reaction is performed for 1 h at room temperature before 5 μl of the development solution is added. After a further incubation for 1 h at room temperature 5 μl of the stop reagent is added.
The output text file is evaluated in an “MS-Excel—VB-Makro” and “GraphPadPrism” (Version 5) (GraphPad Software Inc.) is used to calculate the results. Data for the inhibition of FLT3 are reported in M. data for the inhibition of the protease are reported in % CTL.

Human GSK3beta = Human GSK3beta (Homo sapiens (Human), UniProt P49841); test: GSK 3beta kinase test (Z'-LYTE); format: biochemical; conditions: read-out: IC50 in μM (GSK3beta-Inhibition)
Human GSK3beta, sequence (P49841 whole entry): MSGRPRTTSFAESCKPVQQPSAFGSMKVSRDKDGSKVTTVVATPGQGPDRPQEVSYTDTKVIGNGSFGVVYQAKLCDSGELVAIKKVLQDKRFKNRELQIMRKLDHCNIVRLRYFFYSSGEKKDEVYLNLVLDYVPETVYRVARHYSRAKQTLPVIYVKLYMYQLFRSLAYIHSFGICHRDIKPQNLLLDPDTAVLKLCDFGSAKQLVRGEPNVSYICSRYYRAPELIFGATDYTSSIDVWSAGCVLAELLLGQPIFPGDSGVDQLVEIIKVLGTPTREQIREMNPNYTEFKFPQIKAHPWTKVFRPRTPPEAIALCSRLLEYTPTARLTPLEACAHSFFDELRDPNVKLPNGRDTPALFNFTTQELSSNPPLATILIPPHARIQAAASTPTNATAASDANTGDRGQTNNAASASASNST
Procedure: Human GSK3beta (expressed and prified from SF21 cells) is obtained from the University Dundee/Scotland (Dr. James Hastie—Dept. of Biochemistry) in 50 mM Tris (pH7.5); 150 mM NaCl; 0.1 mM EGTA, 270 mM Succrose, 0.1% β-mercaptoethanol, 1 mM benzamidine, 0.2 mM PMSF; sequence see below). The enzyme is diluted to 3.56 μM (168 μg/ml) in enzyme dilution buffer and 6 μl aliquots are stored at −80° C.
The activity of GSK3 kinase protein is measured using the Z′-LYTETM assay technology from Invitrogen (# PV3324).
The assay is performed in 384 black plates from Corning (#3676) in a final volume of 10 μl by adding 5 μl of kinase peptide mix and 2.5 μl of compound dilution. The reaction is started by addition of 2.5 μl of the 4×ATP solution.
Positive controls are reaction mixtures containing no test compound; negative controls (blanks) are reaction mixtures containing no ATP. As a further control, the phosphopeptide solution is added to wells without kinase and without ATP (=100% phosphorylation control).
The non inhibited kinase reaction will result in a phosphorylation corresponding to 20%-30% of the phosphorylation control.
The reaction is performed 1 h at room temperature. After 1h 5 μl of the development solution is added. After a further incubation for 1 h at room temperature 5 μl of the stop reagent is added. Finally the plates are read on a Flex Station II 384 (Molecular Devices).
The output text file is evaluated in an “MS-Excel—VB-Makro” and “GraphPadPrism” (Version 5) (GraphPad Software Inc.) is used to calculate the results. Data for the inhibition of GSK3beta are reported in M. data for the inhibition of the protease are reported in % CTL.

[2] = Human liver microsomal stability test; format: in vitro ADME; conditions: human liver microsomes; Qh = liver blood flow
Procedure: The metabolic degradation for a specific SYK-inhibitor is performed at 37° C. with pooled human liver microsomes (human liver microsomes are commercially available as “BD UltraPool™” by Corning Life Sciences, Fogostraat 12, 1060 LJ Amsterdam, The Netherlands). The final incubation volume of 100 μl per time point contains TRIS buffer pH 7.6 at RT (0.1 M), magnesium chloride (5 mM), microsomal protein (1 mg/ml) and the test compound at a final concentration of 1 μM.
Following a short preincubation period at 37° C., the reaction is initiated by addition of beta-nicotinamide adenine dinucleotide phosphate in its reduced form (NADPH, 1 mM) and terminated by transfering an aliquot into solvent after different time points. Additionally, the NADPH-independent degradation is monitored in incubations without NADPH, terminated at the last time point.
The quenched (terminated) incubations are then pelleted by centrifugation (10000 g, 5 min).
An aliquot of the supernatant is assayed by LC-MS/MS for the remaining amount of parent compound. The half-life (t1/2 INVITRO) is determined by the slope of the semilogarithmic plot of the concentration-time profile.
The intrinsic clearance (CL_[…]) is calculated by considering the amount of protein in the incubation: CL_[…][μl/min/mg protein]=(Ln 2/(t1/2 INVITRO[min]*protein content[mg/ml]))*1000
The protein content [mg/ml] was determined with the “Bicinchoninic Acid Kit” of Sigma Aldrich (commercially available).
The upscaled intrinsic Clearance (CL_UP_INT) is calculated by considering the liver weight [g liver/kg body weight] and the microsomal recovery [mg protein/g liver]: CL_UP_INT[ml/min/kg]=0.001*CL_[…]*liver weight*microsomal recovery • with microsomal recovery=45 mg protein/g liver • with liver weight=25.7 g liver/kg body weight
The percent hepatic blood flow (% Qh) is finally calculated by considering the human liver blood flow Q [ml/min/kg]: % Qh[%]=((Q*CL_UP_INT)/(Q+CL_UP_INT)/Q)*100 • with liver blood flow (Q)=20.7 ml/min/kg.

[3] = target: Recombinant human Syk (amino acids 342-635), GST-Syk kinase fusion protein (Homo sapiens (Human), UniProt P43405); test: Syk kinase test (Kinase Glo luminescence); format: biochemical; conditions: read-out: IC50 in μM (SYK-Inhibition)
Procedure: as §1, with “measured relative light units (RLU).” for “measured RLU.”, “as 100%” for “as 0%”, “as 0%” for “as 100%”, “software. Calculation:[y=(a−d)/(1+(x/c)^b)+d]” for “software. Calculation: [y=(a−d)/(1+(x/c)^b)+d],”

[4] = read-out: IC50 in μM (AURB-Inhibition)
[5] = read-out: IC50 in μM (FLT3-Inhibition)

Recombinant human Aurora B (amino acids 1-344), sequence (Q96GD4 whole entry, the tested form may be a part): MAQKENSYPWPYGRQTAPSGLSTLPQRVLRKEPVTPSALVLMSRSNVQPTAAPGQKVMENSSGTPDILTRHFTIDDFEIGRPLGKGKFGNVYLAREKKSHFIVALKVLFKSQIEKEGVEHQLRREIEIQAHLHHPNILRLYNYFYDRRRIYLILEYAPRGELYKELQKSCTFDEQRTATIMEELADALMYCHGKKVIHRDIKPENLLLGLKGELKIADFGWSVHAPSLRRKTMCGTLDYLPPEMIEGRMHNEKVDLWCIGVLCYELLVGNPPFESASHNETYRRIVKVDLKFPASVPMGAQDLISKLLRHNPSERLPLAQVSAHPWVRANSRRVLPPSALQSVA

| SMILES | IC50 [1, 4] [µM] | IC50 (FLT3; [5]) [µM] | IC50 (Human GSK3beta) [µM] | microsomal stability Cl [% Qh] [2] [% Qh] | IC50 [3] [µM] | IC50 ([1]; Table 1, read-out: AURB-inhibition IC50-value) [µM] | IC50 (FLT3; Table 1, read-out: FLT3-inhibition IC50-value) [µM] |
| --- | --- | --- | --- | --- | --- | --- | --- |
| C[C@@H](Oc1nc(-c2ccc(OC(F)(F)F)c(F)c2)cc2ncccc12)[C@H]1CNC(=O)C1 [1 of WO 2011/092128] | 5.09 | 1.53 | > 10 | – | – | – | – |
| COc1cc(-c2cc(O[C@H](C)[C@H]3CNC(=O)C3)c3cccnc3c2)cc(OC)c1OC [2 of WO 2013/014060] | 16.9 | 7.39 | > 10 | 81 | – | – | – |
| COc1cc(-c2cc3ncccc3c(O[C@H](C)[C@H]3CNC(=O)C3)n2)ccc1OC(F)(F)F [4 of WO 2011/092128] | 1.85 | 0.633 | > 10 | 33 | 0.003 | – | – |
| C[C@@H](Oc1cc(-c2ccccn2)cc2ncccc12)[C@H]1CNC(=O)C1 [6 of WO 2013/014060] | 1.03 | 0.64 | > 1 | 24 | 0.004 | – | – |
| COc1cc(-c2cc3ncccc3c(O[C@H](C)[C@H]3CNC(=O)C3)n2)cc(Cl)c1OC [7 of WO 2011/092128] | 2.33 | 0.452 | > 10 | 79 | – | – | – |
| COc1cc(-c2cc3ncccc3c(O[C@H](C)[C@H]3CNC(=O)C3)n2)cc(OC)c1Cl [8 of WO 2011/092128] | > 50 | > 50 | > 10 | 77 | – | – | – |
| COc1ccc(-c2cc(O[C@H](C)[C@H]3CNC(=O)C3)c3cccnc3c2)cc1OC [8 of WO 2013/014060] | 0.643 | 0.369 | > 10 | 58 | – | – | – |
| COc1cc(-c2cc(O[C@H](C)[C@H]3CNC(=O)C3)c3cccnc3c2)ccc1OC(C)C [10 of WO 2013/014060] | 0.271 | 0.312 | > 10 | 57 | – | – | – |
| COc1cc(-c2cc(O[C@H](C)[C@H]3CNC(=O)C3)c3cccnc3c2)ccc1O [11 of WO 2013/014060] | 0.752 | – | > 10 | 24 | – | – | – |
| C[C@@H](Oc1cc(-c2ccc3ncccc3c2)cc2ncccc12)[C@H]1CNC(=O)C1 [29 of WO 2013/014060] | 0.293 | 0.315 | > 10 | 44 | – | – | – |
| COc1cc(-c2cc3ncccc3c(O[C@H](C)[C@H]3CNC(=O)C3)n2)cc(OC)c1OC [35 of WO 2011/092128] | 5.21 | 1.18 | > 10 | 62 | 0.001 | – | – |
| C[C@@H](Oc1cc(-c2ccc3[nH]cnc3c2)cc2ncccc12)[C@H]1CNC(=O)C1 [41 of WO 2013/014060] | 0.308 | 0.505 | > 10 | 37 | – | – | – |
| C[C@@H](Oc1cc(-c2ccc3cnn(C)c3c2)cc2ncccc12)[C@H]1CNC(=O)C1 [42 of WO 2013/014060] | 0.63 | 0.618 | > 10 | <23 | – | – | – |
| Cc1cn2cc(-c3cc(O[C@H](C)[C@H]4CNC(=O)C4)c4cccnc4c3)ccc2n1 [61 of WO 2013/014060] | 0.25 | 0.411 | > 10 | <23 | – | – | – |
| C[C@@H](Oc1cc(-c2ccc(C(=O)N3CCN(C)CC3)cc2)cc2ncccc12)[C@H]1CNC(=O)C1 [76 of WO 2013/014060] | 0.075 | 0.169 | > 10 | <23 | – | – | – |
| C[C@@H](Oc1cc(-c2ccc3ncn(C)c3c2)cc2ncccc12)[C@H]1CNC(=O)C1 [81 of WO 2013/014060] | 0.949 | 0.514 | > 10 | <23 | – | – | – |
| Cc1nc2ccc(-c3cc(O[C@H](C)[C@H]4CNC(=O)C4)c4cccnc4c3)cc2s1 [85 of WO 2013/014060] | 0.46 | 0.321 | 6.82 | 49 | 0.002 | – | – |
| C[C@@H](Oc1cc(-c2ccc3c(c2)CNCC3)cc2ncccc12)[C@H]1CNC(=O)C1 [101 of WO 2013/014060] | 1.05 | 0.14 | > 10 | <23 | – | – | – |
| COc1cc(-c2cc3nn(C)cc3c(O[C@H](C)[C@H]3CNC(=O)C3)n2)ccc1O [Example 8, (4R)-4-[(1R)-1-[6-(4-Hydroxy-3-methoxy-phenyl)-2-methyl-pyrazolo[4,3-c]pyridin-4-yl]oxyethyl]pyrrolidin-2-one] | > 50 | 13.5 | > 10 | <23 | – | > 50 | 13.5 |
| C[C@@H](Oc1cc(-c2ccc(N3CCOCC3)cc2)cc2nn(C)cc12)[C@H]1CNC(=O)C1 [Example 22, (4R)-4-[(1R)-1-[2-Methyl-6-(4-morpholinophenyl)indazol-4-yl]oxyethyl]-pyrrolidin-2-one] | – | – | > 10 | 25 | – | – | – |
